Assay [1] relates to dextran sodium sulfate (DSS)-induced ulcerative colitis model in the rat. The assay can be described thus: Rat model of DSS-induced ulcerative colitis, 7-day repetitive intrarectal administration (Example 1). It is filed as in vivo, SD rats. The settings on record: 7 days; for colon contraction: DSS rat (Figure 2); for Hb / Ht / RBC / WBC: hematological examination, i.r., DSS rat. The source says:
The therapeutic effect of YY-1 was investigated with the 7-day repetitive intrarectal administration using a dextran sodium sulfate (DSS)-induced ulcerative colitis model in the rat (Cancer Research, 61, 2424-2428, 2001). To generate the rat model of DSS-induced ulcerative colitis, a 3% aqueous DSS solution was ingested ad libitum by SD rats (male, age: 7 weeks) purchased from Charles River Laboratories Japan Inc., and animals presenting bloody stools were used as the rat model of DSS-induced ulcerative colitis.
The negative control group received 0.5% aqueous CMC-Na solution (vehicle) by intrarectal administration, while the positive control group received 100 mg/kg/day 5-aminosalicylic acid (5-ASA, purchased from Aldrich Chemical Company) dissolved in 0.5% aqueous CMC-Na solution by intrarectal administration. For YY-1, the compound was combined with 0.5% aqueous CMC-Na solution by means of a vortex mixing and sonication to form a suspension, and was administered intrarectally at 20 mg/kg/day (low dose group), 100 mg/kg/day (intermediate dose group), and 500 mg/kg/day (high dose group). Each group contained 8 SD rats, and a 1% aqueous DSS solution was ingested ad libitum during the test period.

For assay [2], the system named is dextran sodium sulfate (DSS)-induced ulcerative colitis model in the mouse. As to the kind of experiment: Mouse model of DSS-induced ulcerative colitis, 7-day repetitive intrarectal administration, 5.0% DSS during test period (Example 2). It counts as in vivo, c57BL/6J mice. Particulars: 7 days; for body weight gain: P < 0.05 (Figure 4); for symptom alleviation: P < 0.05 (Figure 5); for colon contraction: P < 0.05 (Figure 6). An excerpt:
(§1) The therapeutic effect of YY-1 was investigated with the 7-day repetitive intrarectal administration using a dextran sodium sulfate (DSS)-induced ulcerative colitis model in the mouse. To generate the mouse model of DSS-induced ulcerative colitis, a 9.0% aqueous DSS solution was ingested ad libitum for 7 days by c57BL/6J (male, age: 8 weeks) purchased from CLEA Japan, Inc., and animals presenting body weight loss, bloody stool, and/or diarrhea were used as the mouse model of DSS-induced ulcerative colitis.
The negative control group received 0.5% aqueous CMC-Na solution by intrarectal administration, while the positive control group received 100 mg/kg/day 5-aminosalicylic acid (5-ASA, purchased from Aldrich Chemical Company) dissolved in 0.5% aqueous CMC-Na solution by intrarectal administration. For YY-1, the compound was combined with 0.5% aqueous CMC-Na solution by means of an ultrasound mixer under ice cooling to form a suspension, and was administered intrarectally at 100 mg/kg/day or 500 mg/kg/day. Each group contained 8 c57BL/6J mice, and a 5.0% aqueous DSS solution was ingested ad libitum during the test period (Figure 3).

Assay [3] shares this test system. The assay can be described thus: Mouse model of DSS-induced ulcerative colitis, 7-day repetitive intrarectal administration, 9.0% DSS during test period (Example 3). It counts as in vivo, c57BL/6J mice. Particulars: 500 mg/kg/day intrarectal, 7 days.
Text: as §1
The negative control group received 0.5% aqueous CMC-Na solution by intrarectal administration. For YY-1, the compound was combined with 0.5% aqueous CMC-Na solution by means of an ultrasound mixer under ice cooling to prepare a suspension, and was administered intrarectally at 500 mg/kg/day. Each group contained 8 c57BL/6J mice, and a 9.0% aqueous DSS solution was ingested ad libitum during the test period (Figure 7).

The structures appear in SMILES notation.

Turning to `CC/C=C\C/C=C\C/C=C\C/C=C\C/C=C\C=C\C(O)CCC(=O)O` (stereo not shown) [YY-1, (5E,7Z,10Z,13Z,16Z,19Z)-4-hydroxy-5,7,10,13,16,19-docosahexaenoic acid], the colon contraction entry in assay [1] (100 mg/kg/day intrarectal), in assay [1] (500 mg/kg/day intrarectal), in assay [2] (100 mg/kg/day intrarectal), in assay [2] (500 mg/kg/day intrarectal) and in assay [3] (P < 0.01 (Figure 10)) was “significant improvement” throughout. The “area of erosion in the mucous membrane of the colon” value in assay [1] (500 mg/kg/day intrarectal, DSS rat (Figure 1)) is recorded as “significant reduction”. Also, the results for the Hb in assay [1] (20 mg/kg/day), in assay [1] (100 mg/kg/day) and in assay [1] (500 mg/kg/day) were 11 ± 1.5 g/dL, 12.2 ± 0.9 g/dL and 13.8 ± 0.3 g/dL, respectively. The Ht in assay [1] (20 mg/kg/day) is reported as 35.5 ± 4.6%; in assay [1] (100 mg/kg/day), 41.5 ± 3.2%; in assay [1] (500 mg/kg/day), 45.7 ± 1.1%. Further, the RBC in assay [1] (20 mg/kg/day) is 519 ± 80 x 10^4/µL; in assay [1] (100 mg/kg/day), 605 ± 51 x 10^4/µL; in assay [1] (500 mg/kg/day), 670 ± 20 x 10^4/µL. Besides, the WBC in assay [1] (20 mg/kg/day) was 136 ± 34 x 10^2/µL; in assay [1] (100 mg/kg/day) it was 120 ± 13 x 10^2/µL; in assay [1] (500 mg/kg/day), 138 ± 14 x 10^2/µL. The body weight gain result in assay [2] (100 mg/kg/day intrarectal), in assay [2] (500 mg/kg/day intrarectal) and in assay [3] (P < 0.05 (Figure 8)) was “significant improvement” throughout. Moreover, the symptom alleviation entry in assay [2] (100 mg/kg/day intrarectal), in assay [2] (500 mg/kg/day intrarectal) and in assay [3] (P < 0.05 (Figure 9)) was “significant improvement” in each case.

Turning to `Nc1ccc(O)c(C(=O)O)c1` [5-ASA, 5-aminosalicylic acid, reference compound], in assay [1] (100 mg/kg/day), the Hb is reported as 13.3 ± 0.4 g/dL, the Ht was found to be 41.7 ± 1.1%, the RBC is 633 ± 27 x 10^4/µL and the WBC is listed as 126 ± 20 x 10^2/µL.

The record behind these values is patent publication EP1946754A1, “THERAPEUTIC AGENT FOR ULCERATIVE COLITIS AND/OR CROHN'S DISEASE” (Yamamoto, Keiko, priority 2005, dated 2007).
